“Also recorded” adds a separate entry of the source. Like-named read-outs stand apart in the source and are kept apart here.
B1: rhAMP-18: recombinant human AMP-18 with N-terminal His6-tag replacing the signal peptide, expressed in E. coli (SEQ ID NO: 27) (protein)
chain: MRGSHHHHHHGSNYNIDVNDDNNNAGSGQQSVSVNNEHNVANVDNNNGWDSWNSIWDYGNGFAATRLFQKKTCIVHKMKKEVMPSIQSLDALVKEKKLQGKGPGGPPPKGLMYSVNPNKVDDLSKFGKNIANMCRGIPTYMAEEMQEASLFFYSGTCYTTSVLWIVDISFCGDTVEN
modifications: N-terminal His6 tag

Assays:
SK-GT5 cells = assay: Growth of SK-GT5 gastroesophageal adenocarcinoma cells; format: cell-based; settings: concentration-dependent
Procedure: (§1) To characterize the capacity of gastric and intestinal cells to respond to AMP-18, AGS gastric adenocarcinoma cells, HAE human gastric antrum mucosa primary cultures transformed with SV40 large T antigen, rat diploid small intestinal epithelial cells of the IEC-6 (FIG. 15) and IEC-18 lines, NCI N-87 gastric carcinoma cells, and SK-GT5 gastroesophageal adenocarcinoma cells were studied; human WI-38 fibroblasts and HeLa cells served as non-GI control cell lines. Mitogenesis was assayed by performing cell counts 3 to 4 days after exposing cells to the agent of interest, trypsinizing the culture to prepare single cells, and confirming this while counting them in a hemocytometer.

[1] = tested on: occludin, ZO-1, ZO-2, claudin-5, E-cadherin, JAM; assay: Accumulation of tight and adherens junction proteins in C2 cells (immunoblot of insoluble fraction, confocal microscopy); format: cell-based, human; settings: 8 hr
Procedure: To find out how the peptide exerts its cytoprotective effect, C2 cell monolayers were treated with AMP peptide, and oxidant injury was induced with monochloramine 18 hours later. Changes in the levels of specific tight junction (TJ) proteins were checked. Cells were lysed, and proteins of the insoluble/particulate fraction were studied by immunoblotting. […] This observation represents the first evidence that AMP peptide enhances accumulation of specific TJ proteins in colonic epithelial cells. […] To carry out this experiment, C2 cells were exposed to AMP peptide for different periods of time, the NP-40-insoluble fraction was obtained, Western blots were prepared, and the amount of each immunoreactive protein was quantified. A 65% increase in immunoreactivity of each protein compared to control was detected for occludin after 2 hr, and for ZO-1 at 8 hr. Hsc73, which is constitutively expressed in these cells, was not altered by exposure to AMP peptide for up to 18 hr.
Confluent monolayers of C2 cells were treated with AMP peptide or vehicle for 8 hr. Cells were then collected, proteins in the NP-40-insoluble fraction were separated by SDS-PAGE, immunoblots were prepared, and the relative amounts of immunoreactive proteins were compared by densitometric analysis. […] These changes appear relatively specific for occludin, ZO-1, ZO-2, claudin-5, E-cadherin, and JAM because they were not observed for several other proteins localized in the TJ (claudin-1, claudin-2), adherens junction (β-catenin), plasma membrane (Na-K-2Cl cotransporter, α or β subunit of Na-K-ATPase), or cytosol (Rho A, hsc73).
To better understand the mechanism(s) by which AMP peptide enhances accumulation of TJ-associated proteins, experiments were performed to determine whether the peptide exerted its effect at the apical or basolateral surface of C2 cells. Monolayers of C2 cells were grown on Transwell filters, AMP peptide (8:g/ml) was added to the apical or basolateral compartment of the Transwell, and cells were harvested 8 hr later. The NP-40-insoluble fraction was obtained, its proteins separated, and immunoblots were prepared.

AGS cells = assay: Growth of gastric epithelial AGS cells (cell count four days later); format: cell-based, human; settings: peptide 77-97 8 μg/ml, EGF 50 ng/ml at saturating doses
Procedure: as §1

HAE cells [2] = assay: Wound restitution (migration) of scrape-wounded HAE cell monolayers; format: cell-based, human; settings: peptide 8 μg/ml, EGF 50 ng/ml; 24-72 hr
Procedure: (§2) To measure growth (left panel), HAE cells were plated in 60-mm dishes. Peptide 77-97 (8 μg/ml), or EGF (50 ng/ml), or both were added to the medium and the number of cells counted 4 days later. […] Values are means±SE for 3 cultures. To measure migration (right panel), cells were grown in 60-mm dishes to prepare a confluent monolayer. The medium was aspirated and replaced with fresh medium containing 0.01% calf serum (CS). The monolayer was mechanically wounded by scraping with a razor blade. Detached cells were removed by aspirating medium, and rinsing the remaining cells twice with fresh medium containing 0.01% CS. Fresh medium (5 ml) containing CS (0.01%) and insulin (100 U/L) was added to wounded cultures. Either peptide 77-97 (8 μg/ml), EGF (50 ng/ml), or both were added to duplicate cultures. Migration was assessed at 24, 48 and 72 hr after wounding by measuring the distance (in mm) that cells had migrated from the wound edge using a microscope eyepiece reticle (10-mm long; 0.1-mm markings). Migrating cells at 12 randomly chosen sites along a 0.25-mm stretch of the wound edge were measured at 40-fold magnification. Migration at 2 different sites was measured for each of 2 separate wounds made in each culture. Values are the mean distance cells moved into the denuded area from the edge of 4 different wounds in 2 cultures±SE.
Confluent monolayer cultures were mechanically wounded by scraping with a razor blade, and the distance that cells migrated from the wound edge was measured using a microscope eyepiece reticle.

IEC-18 cells = assay: Growth of confluent cultures of IEC-18 cells (cell count); format: cell-based, rat; settings: for EC50: read-out: half-maximal concentration (K1/2) for growth stimulation
Procedure: Confluent cultures of IEC-18 cells were prepared. One day later, medium was aspirated and replaced with 5 ml of DMEM containing CS (0.5%) and insulin, without (control) or with mitogenic peptide 58-99 (8 μg/ml). Sister plates receiving 1 ml medium and different amounts of peptide 67-85 were incubated at 1 hr at 38° C. on a CO2 incubator, and then an additional 4 ml of medium was added to each dish. Peptide 58-99 was added to 2 of the 4-sister plates at each concentration of peptide 67-85, and the number of cells was counted. […] Stimulation of cell growth by mitogenic peptide 58-99 was completely abolished by preincubation of cells with 0.25 μg/ml of peptide 67-85. […] Values for the number of cells per culture are shown relative to multiplication of cells exposed to the vehicle during the same period.
Urea (6 M) was employed to release proteins from the insoluble fraction solubilize rhAMP-18 containing the His6-tag (SEQ ID NO: 16), and make it available to bind to the Ni^2+-charged resin from which it was subsequently eluted with a gradient of imidazole (0 to 200 mM). The amount of eluted rhAMP-18 was measured using the BCA assay, and the appearance of a single band at the predicted size of 19-20 kD was confirmed by SDS-PAGE followed by immunoblotting. To determine if eluted rhAMP-18 renatured to assume a structure that was mitogenic, aliquots of the eluate (following removal of urea and imidazole by dialysis) were added to cultures of IEC-18 cells and the number of cells was counted 4 days later. […] AMP peptide 77-97 refers to the mature protein; same as peptide 97-117 of human precursor protein: Table 1. These observations indicate that biologically active recombinant human AMP-18 that can be utilized in diverse clinical situations is available. The mitogenic potency of rhAMP-18 is in the nanomolar range which would be expected for a native gastric cell growth factor that participates in the maintenance and repair of the stomach in vivo.
as §1

IEC-6 cells = assay: Growth of intestinal epithelial IEC-6 cells (cell count); format: cell-based, rat
Procedure: IEC-6 cells were grown in 60-mm dishes. […] Values are means±SE for 3 cultures.
as §1

NCI N-87 cells = assay: Growth of NCI N-87 gastric carcinoma cells; format: cell-based; settings: concentration-dependent
Procedure: as §1

HAE cells [3] = assay: Growth of human antrum epithelial (HAE) cells (cell count 4 days later); format: cell-based; settings: peptide 77-97 8 μg/ml, EGF 50 ng/ml, 4 days
Procedure: as §2, §1

MDCK cells = assay: Transepithelial electrical resistance (TER) of MDCK cell monolayers; format: cell-based; settings: monochloramine 0.1 mM, 90 min; EGF 50 ng/ml
Procedure: Monolayer cultures of MDCK cells were grown on permeable polycarbonate filters (0.4-μm pore size) (Transell) in DMEM containing FBS (2%) without (control) or with peptide 77-97 (8 μg/ml) for 8 days. TER was measured 24 hr after the cells were plated, and at specified times thereafter using an epithelial volt-ohm meter (EVOM, Millipore). Following each measurement, medium containing FBS without or with peptide was changed (0, 48, and 144 hr), and additional peptide 77-97 (8 μg/ml) was added at 30 and 72 hr. At 72 hr, TER in cultures that received peptide 77-97 was twice as high as in control cultures. Values are means for 3 cultures; variance is <10% of the mean. TER was measured from 3 different areas on the filter.
(§3) Panel A: When a stable TER was reached (330 Ω·cm^2) in MDCK cell monolayers the medium was changed to DMEM containing FBS (0.2%), and either peptide 77-97 (8 μg/ml) or EGF (50 ng/ml). After 18 hr, peptide 77-97 or EGF were added to the specified wells. One hour later monochloramine (0.1 mM), like the other agents, was added to the apical and basal compartments of the Transwell. […] Panels B, C: Caco2/bbe (C2) subclone monolayers were grown on collagen-coated polycarbonate filters until a stable TER was reached (225 Ω·cm^2). Spent medium was replaced with fresh medium containing FBS (0.1%) alone or with peptide 77-97 (8 μg/ml). After 18 hr, monochloramine (0.3 mM, B) or indomethacin (0.1 mM, C) was added to both compartments of the Transwell. At time 0, cultures received either vehicle (control), vehicle plus oxidant or indomethacin, or peptide 77-97 and oxidant or indomethacin. TER of injured cultures treated with vehicle decreased by ˜35% at 90 min, whereas peptide-treated cultures declined ˜10%.

[4] = tested on: stomach and intestinal epithelial cells; assay: Concentrations at which gastric peptide mediators exert their effects in culture; format: cell-based
Caco2/bbe (C2) cells = assay: Transepithelial electrical resistance (TER) of Caco2/bbe (C2) cell monolayers after injury; format: cell-based, human; settings: monochloramine 0.3 mM, 45 min; rhAMP-18 100 nanomolar or peptide 3.7 micromolar pre-treatment; oxidant alone ~35%
Procedure: as §3
C2 cell monolayers were grown in DMEM containing FBS (5%) and transferrin (10 μg/ml) on collagen-coated polycarbonate filters until a stable TER was reached (225 Ωcm^2). At time 0, cells were exposed to no DSS (control), or DSS (4%) in the upper compartment of the Transwell. AMP peptide 77-97 (8 μg/ml) was added to the upper and lower compartments of the Transwell 1 day prior to the addition of DSS at time 0. TER of DSS-injured cultures treated with vehicle decreased by ˜70% at 45 min, whereas peptide-treated cultures declined ˜10% at that time. […] Values are means for ≧6 cultures.
Confluent C2 cell monolayers were prepared on Transwells until a stable TER was established. Medium was replaced with fresh medium containing FBS (0.1%) alone (control), or with either rhAMP-18 (100 nanomolar) or peptide 77-97 (3.7 micromolar). After 18 hr, monochloramine (0.3 mM) was added to both compartments of the Transwell, and cultures received either vehicle (control), vehicle plus oxidant, rhAMP-18 and oxidant, or peptide 77-97 and oxidant, after which TER was measured.
To determine whether AMP peptide could speed recovery of TER after DSS-induced colonic cell injury, a highly sought-after functional characteristic of an agent designed to treat IBD, C2 cell monolayers were exposed to DSS (5%) for 10 min which reduced TER to 33±6% of the control value (FIG. 29, left panel). DSS was removed by aspirating the medium and replacing it with fresh medium. AMP peptide 77-97 (8 μg/ml) or vehicle was added to the culture medium, and TER was measured 18 hr later. In the presence of the vehicle, TER increased from 33% to 66±7% of the control value, whereas cells exposed to AMP peptide reached a value 112±4% of control.
To determine if the cytoprotective effect of AMP peptide is mediated at the level of the actin cytoskeleton, C2 cell monolayers were exposed to cytochalasin D, an agent known to disrupt actin filaments and compromise barrier function (Madara et al., 1986).
To determine if AMP peptide could play a cytoprotective role in GDS, a study was carried out in C2 cell monolayers that were exposed to the PA-I lectin. […] Next the effect of AMP peptide was studied in the mouse model of P. aeruginosa-induced-GDS (Laughlin et al., 2000) using female Balb/c mice subjected to 30% hepatectomy, injection of a solution of living P. aeruginosa into the cecum, and food deprivation postoperatively. All 8 of the mice survived surgery.

Row | Molecule | growth of SK-GT5 cells (SK-GT5 cells) | accumulation of occludin and ZO-1 (specificity) ([1]; peptides 8 μg/ml, EGF 50 ng/ml) | growth stimulation of AGS cells (in words) (AGS cells) | migration from the wound edge compared with vehicle (HAE cells [2]) | increase in cell number (IEC-18 cells; 3 days, peptide 58-99 8 μg/ml, EGF 50 ng/ml, vehicle 290%) [%] | growth stimulation of IEC-6 cells (in words) (IEC-6 cells) | growth of NCI N-87 cells (NCI N-87 cells) | proliferation of HAE cells (in words) (HAE cells [3]) | loss of TER after oxidant exposure (MDCK cells) | concentrations at which physiological effects can occur [4] [nM] | immunoreactive ZO-1 and occludin versus vehicle-treated cells ([1]; 100 nanomolar, laser densitometry) | concentration of maximal mitogenic effect (IEC-18 cells; FIG. 18) [nM] | growth stimulation of IEC-18 cells (in words) (IEC-18 cells; added alone, peptides up to 8 μg/ml) | EC50 (IEC-18 cells; confluent IEC-18 cultures, FIG. 13) [nM] | EC50 (IEC-18 cells; recently purified rhAMP-18, FIG. 18) [nM] | decline in TER after monochloramine (Caco2/bbe (C2) cells) [%]
1 | EGF: polypeptide mitogen used for comparison at 50 ng/ml [reference compound] | stimulated | not replicated | stimulated growth; also recorded: mitogenic | stimulated cell movement | 402 | stimulated | stimulated | stimulated proliferation | 35-40% |  |  |  |  |  |  | 
2 | B1 |  |  |  |  |  |  |  |  |  | < 50 | about two-fold | 5 | stimulates cell proliferation to the same maximal extent | ~30 | ~5 | ~10
